These results are taken from patent US11034648B2, “Cystobactamide derivatives” (priority 2017, dated 2021).

The structures appear in SMILES notation. Converted amounts (≈) assume the structure as drawn. Some results are limits rather than exact numbers.

Experiment [1] concerns P. aeruginosa ΔmexAB. Description: microbe, parasite or virus in culture. It is filed as cell-based. The settings on record: Pseudomonas aeruginosa, 16 h, read-out: MIC P. aeruginosa ΔmexAB, efflux-deficient strain; small panel, Tables 1a/1b. The method in brief: (§1)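 Inoculum: 10^4-10^6 cfu/mL from overnight culture. Medium: cation-adjusted Müller-Hinton broth. Incubation: approx. 16 h, 30-37° C. Read-out: visual, MIC at no growth.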

Experiment [2] deals with E. coli WT-3 [gyrA(S83L,D87G)]. Description: microbe, parasite or virus in culture. The settings on record: Escherichia coli, read-out: MIC E. coli WT-3 [gyrA(S83L,D87G)]. It is filed as cell-based. In short, it runs like this:
as §1

In experiment [3] the test system is E. coli ΔtolC. The experiment can be described thus: microbe, parasite or virus in culture. The conditions noted are these: Escherichia coli, 16 h, read-out: MIC E. coli ΔtolC, small panel, Tables 1a/1b; no visual growth after approx. 16 h. It is filed as cell-based. The method in brief:
as §1

Experiment [4] has as its system E. coli WT-III [marRΔ74bp]. It is filed as cell-based. The settings on record: fluoroquinolone-resistant mutant; Table 2a. How it is done: Cystobactamid derivatives synthesized were tested against relevant Gram negative and positive bacteria of clinical interest. Experimental procedures used for the biological characterization of the compounds are the same as previously described in WO 2016/082934.
Bacterial strains used in susceptibility assays (minimum inhibitory concentration, MIC) were either part of our internal strain collection or purchased from the German Collection of Microorganisms and Cell Cultures (Deutsche Sammlung von Mikroorganismen und Zellkulturen, DSMZ) and the American Type Culture Collection (ATCC). The susceptible E. coli strain (WT) and fluoroquinolone-resistant mutants E. coli WT-3 and WT-III were kindly provided by Prof Dr. P. Heisig, Pharmaceutical Biology and Microbiology, University of Hamburg, Germany. The efflux-deficient strain P. aeruginosa ΔmexAB was kindly provided by Prof Dr. S. Häußler, Institute for Molecular Bacteriology, TWINCORE, Hannover, Germany. All compounds were prepared as DMSO stocks and MIC values were determined in standard microbroth dilution assays in 96-well MTPs as described in Baumann et al., Angew Chem Int Ed Engl. 2014; 53(52):14605-9. In brief, overnight cultures of bacteria were diluted in either tryptic soy broth (TSB: 1.7% peptone casein, 0.3% peptone soymeal, 0.25% glucose, 0.5% NaCl, 0.25% K2HPO4; pH 7.3; S. pneumoniae and E. faecalis) or cation-adjusted Müller-Hinton Broth (BBL™, BD; all other bacteria) and adjusted to 10^4-10^6 cfu/mL. Bacteria were grown in the presence of the derivatives in serial dilution for approx. 16 h at 30-37° C. MIC values were determined and were defined as the antibiotic concentration at which no visual growth of bacteria was observed.

The test system of experiment [5] is A. baumannii DSM-30008. Description: MIC, microbroth dilution susceptibility assay. The settings on record: Acinetobacter baumannii, DSM30008; large panel, Table 2a. It is filed as cell-based. In short, it runs like this:
as §1
(In general: Dilution methods test growth across graded concentrations, often in twofold steps.)

Experiment [6] relates to S. marcescens DSM-30121. The experiment can be described thus: MIC, microbroth dilution susceptibility assay. It is filed as cell-based. The conditions noted are these: Serratia marcescens, DSM30121; large panel, Table 2a. The method in brief: as §1
For experiment [7], the system named is P. aeruginosa WT PA14. The experiment can be described thus: MIC, microbroth dilution susceptibility assay. It is filed as cell-based. The settings on record: Pseudomonas aeruginosa, PA14, small panel, Tables 1a/1b; read-out: MIC P. aeruginosa WT PA14. The method in brief:
as §1

Experiment [8] deals with P. aeruginosa DSM-24600. Description: MIC, microbroth dilution susceptibility assay. It is filed as cell-based. The conditions noted are these: Pseudomonas aeruginosa, DSM24600; large panel, Table 2a. The method in brief: as §1
The subject of experiment [9] is S. aureus ATCC-29213. The experiment can be described thus: MIC, microbroth dilution susceptibility assay. It is filed as cell-based. The settings on record: Staphylococcus aureus, ATCC29213; large panel, Table 2a. In short, it runs like this:
as §1

Experiment [10] relates to S. aureus Newman. Description: MIC, microbroth dilution susceptibility assay. The conditions noted are these: Staphylococcus aureus, NEWMAN; small panel, Tables 1a/1b; read-out: MIC S. aureus Newman. It is filed as cell-based. The method in brief:
as §1

In experiment [11] the test system is P. vulgaris DSM-2140. Description: MIC, microbroth dilution susceptibility assay. It is filed as cell-based. The conditions noted are these: Proteus vulgaris, DSM2140; large panel, Table 2a. The method in brief:
as §1

Experiment [12] deals with E. faecalis ATCC-29212. Description: MIC, microbroth dilution susceptibility assay. It is filed as cell-based. The conditions noted are these: Enterococcus faecalis, ATCC29212; large panel, Table 2a; TSB. In short, it runs like this:
as §1

The subject of experiment [13] is C. freundii DSM-30039. The experiment can be described thus: MIC, microbroth dilution susceptibility assay. The settings on record: Citrobacter freundii, DSM30039; large panel, Table 2a. It is filed as cell-based. In short, it runs like this: as §1
Experiment [14] has as its system K. pneumoniae DSM-30104. Description: MIC, microbroth dilution susceptibility assay. It is filed as cell-based. The settings on record: Klebsiella pneumoniae, DSM30104; large panel, Table 2a. In short, it runs like this: as §1
Experiment [15] relates to E. cloacae DSM-30054. The experiment can be described thus: MIC, microbroth dilution susceptibility assay. It is filed as cell-based. The conditions noted are these: Enterobacter cloacae, DSM30054; large panel, Table 2a. In short, it runs like this: as §1
Experiment [16] has as its system E. coli WT. Description: MIC, microbroth dilution susceptibility assay. It is filed as cell-based. The settings on record: Escherichia coli; large panel, Table 2a. The method in brief:
as §1

In experiment [17] the test system is P. aeruginosa DSM-46316. Description: MIC, microbroth dilution susceptibility assay. It is filed as cell-based. The conditions noted are these: Pseudomonas aeruginosa, DSM46316; large panel, Table 2a. In short, it runs like this:
as §1

The subject of experiment [18] is S. epidermidis DSM-28765. The experiment can be described thus: MIC, microbroth dilution susceptibility assay. It is filed as cell-based. The settings on record: Staphylococcus epidermidis, DSM28765; large panel, Table 2a. In short, it runs like this: as §1
For experiment [19], the system named is E. coli WT DSM-1116. The experiment can be described thus: MIC, microbroth dilution susceptibility assay. It is filed as cell-based. The settings on record: Escherichia coli, DSM1116; small panel, Tables 1a/1b; no visual growth after approx. 16 h; read-out: MIC E. coli WT DSM-1116. In short, it runs like this:
as §1

Experiment [20] relates to S. pneumoniae DSM-20566. Description: MIC, microbroth dilution susceptibility assay. It is filed as cell-based. The conditions noted are these: Streptococcus pneumoniae, DSM20566; large panel, Table 2a; TSB. In short, it runs like this: as §1
Experiment [21] deals with P. mirabilis DSM-2140. The experiment can be described thus: MIC, microbroth dilution susceptibility assay. It is filed as cell-based. The settings on record: Proteus mirabilis, DSM2140; large panel, Table 2a. The method in brief: as §1
Experiment [22] has as its system E. aerogenes DSM-30053. The experiment can be described thus: MIC, microbroth dilution susceptibility assay. The settings on record: Klebsiella aerogenes, DSM30053; large panel, Table 2a. It is filed as cell-based. The method in brief: as §1
The target in experiment [23] is T1, E. coli gyrase (Escherichia coli, UniProt P0AES4+P0AES6).
T1 construct: purchased Inspiralis
The experiment can be described thus: E. coli gyrase supercoiling (sc) assay. It is filed as biochemical. The settings on record: supercoiling assay kit, agarose gel quantification; read-out: Ec gyrase sc IC50. On the procedure: The target activity on E. coli gyrase was assessed as described in Baumann et al., Angew Chem Int Ed Engl. 2014; 53(52):14605-9 using a commercial supercoiling (sc) assay kit from Inspiralis according to the manufacturer's instructions. The samples were separated on 0.8% (w/v) agarose gels and relaxed and supercoiled plasmid was visualized by ethidium bromide staining. Half-inhibitory concentrations (IC50) were calculated after image analysis and quantification (ImageJ) based on sigmoidal curve fitting (OriginPro).

For the molecule `C/C(=C\c1ccc(O)cc1)C(=O)Nc1ccc(C(=O)N[C@@H](CC(N)=O)C(=O)Nc2ccc(C(=O)Nc3ccc(C(=O)Nc4ccc(C(=O)O)cc4)c(O)c3OC(C)C)cc2)cc1` [Compound 53, (S,E)-4-(4-(4-(4-amino-2-(4-(3-(4-hydroxyphenyl)-2-methylacrylamido)benzamido)-4-oxobutanamido)benzamido)-2-hydroxy-3-isopropoxybenzamido)benzoic acid], the MIC in [1] worked out at 0.25 µg/mL (≈ 0.297 µM); in experiment [2], 0.06 µg/mL (≈ 0.0712 µM); in [3], 0.06 µg/mL (≈ 0.0712 µM); in [5], 0.25 µg/mL (≈ 0.297 µM); in experiment [6] it was 64 µg/mL (≈ 75.9 µM); in experiment [7] it was 1 µg/mL (≈ 1.19 µM). Besides, the MIC in experiment [8] is above 64 µg/mL; in experiment [9], 0.5 µg/mL (≈ 0.593 µM); in experiment [10], 0.25 µg/mL (≈ 0.297 µM); in experiment [11], 0.13 µg/mL (≈ 0.154 µM); in experiment [12] it was 0.5 µg/mL (≈ 0.593 µM); in experiment [13], 0.13 µg/mL (≈ 0.154 µM). The MIC in experiment [14] is above 64 µg/mL; in experiment [15] it was above 64 µg/mL; in experiment [16], 0.13 µg/mL (≈ 0.154 µM); in experiment [17], 2 µg/mL (≈ 2.37 µM); in experiment [18], 0.25 µg/mL (≈ 0.297 µM); in [19], 0.25 µg/mL (≈ 0.297 µM). Moreover, the MIC in [20] was 2 µg/mL (≈ 2.37 µM); in [21], 2 µg/mL (≈ 2.37 µM); in experiment [22], 1 µg/mL (≈ 1.19 µM). Also, the “MIC E. coli WT-III [marRΔ74bp]” value in experiment [4] was 0.06 µg/mL (≈ 0.0712 µM).

For the molecule `CC(C)Oc1c(NC(=O)c2ccc(NC(=O)[C@H](CC(N)=O)NC(=O)c3ccc(NC(=O)c4ccc([N+](=O)[O-])cc4)cc3)cc2)ccc(C(=O)Nc2ccc(C(=O)O)cc2)c1O` [Compound 28, (S)-4-(4-(4-(4-amino-2-(4-(4-nitrobenzamido)benzamido)-4-oxobutanamido)benzamido)-2-hydroxy-3-isopropoxybenzamido)benzoic acid], in experiment [23], the IC50 – broadly, the concentration that gives 50% inhibition – was found to be 110 nM. Besides, the MIC in experiment [1] was 1 µg/mL (≈ 1.2 µM); in experiment [2], 0.25 µg/mL (≈ 0.301 µM); in experiment [3], 0.06 µg/mL (≈ 0.0721 µM); in [5], 0.25 µg/mL (≈ 0.301 µM); in experiment [6], above 64 µg/mL; in experiment [7], above 64 µg/mL. The MIC in [8] is above 64 µg/mL; in experiment [9], 0.5 µg/mL (≈ 0.601 µM); in experiment [10] it was 0.5 µg/mL (≈ 0.601 µM); in experiment [11], 0.13 µg/mL (≈ 0.156 µM); in experiment [12], 2 µg/mL (≈ 2.4 µM); in experiment [13], 0.06 µg/mL (≈ 0.0721 µM). For the same molecule, the MIC is above 64 µg/mL in experiment [14]; 0.25 µg/mL (≈ 0.301 µM) in [15]; 0.06 µg/mL (≈ 0.0721 µM) in experiment [16]; above 64 µg/mL in experiment [17]; 1 µg/mL (≈ 1.2 µM) in [18]; 0.13 µg/mL (≈ 0.156 µM) in experiment [19]. In addition, the MIC in experiment [20] is 0.25 µg/mL (≈ 0.301 µM); in experiment [21] it was above 64 µg/mL; in experiment [22], above 64 µg/mL. The “MIC E. coli WT-III [marRΔ74bp]” value in experiment [4] came to 0.06 µg/mL (≈ 0.0721 µM).
